The source of these data is US4606911A, “Pharmaceutical composition for the prevention of dental caries” (Rohto Pharmaceutical Co. Ltd., priority 1984, dated 1986).

Assay [1] deals with S. mutans OMZ 176 (serotype d). As to the kind of experiment: microbe, parasite or virus in culture. In kind it is cell-based. The conditions noted are these: for inhibition at 10 µg/mL / inhibition at 20 µg/mL / inhibition at 30 µg/mL / inhibition at 50 µg/mL / inhibition at 100 µg/mL: Streptococcus mutans, read-out: Adherence-inhibiting activity (AIP); for adherence-inhibiting activity (in words): text statement. How it is done:
The adherence-inhibiting activity of the triterpenes of the formula (I) was measured using an inner wall of a test tube in place of the surface of a tooth.
To 2.9 ml of BHI medium containing 5% sucrose in a test tube (i) are added 30 μl of a sample solution prepared by dissolving a compound of: the formula (I) in H2 O or dimethylsulfoxide (DMSO) and 100 μl of culture medium containing S. mutans OMZ 176 (serotype d) which was preincuvated at 37° C. for 24 hours in BHI medium, and the mixture is incubated at 37° C. for 20 hours, with the test tube being maintained at a slant of 30°. The test tube is revolved gently two or three times and the supernatant is transferred to another test tube (ii). To the first test tube (i) is added 3 ml of 50 mM phosphate buffer (pH 7.5), and the test tube is gently revolved two or three times. The resultant supernatant is transferred to the third test tube (iii). The test tubes (ii) and (iii) are each centrifuged and respective supernatants are discarded. To each of the test tubes (i), (ii) and (iii) is added 3 ml of 0.5M NaOH, and the test tubes are shaken to suspend bacterial cells. Absorbance of the resulting suspension is measured at 660 nm. The absorbances obtained with respect to the test tube (i), (ii) and (iii) are represented by Ab(i), Ab(ii) and Ab(iii), respectively. Ab(i) reflects the amount of the bacterial cells adhered to the wall of the test tube and Ab(ii) and Ab(iii) correspond to the amount of the bacterial cells not adhered to the wall.
The same procedure is repeated using 30 μl of distilled water or DMSO in place of the sample solution to obtain a control. The absorbance of the control is represented by Ab(Cont.).
Adherence percentage of bacteria is calculated from the following equation. [formula]
Adherence inhibitory percentage (AIP) is calculated using the adherence percentage according to the following equation. [formula]
The magnitude of adherence-inhibiting activity of each of the samples is shown, in Table 3, by the use of the following symbols: […]

Assay [2] has as its system Streptococcus mutans OMZ 176. As to the kind of experiment: Antibacterial activity (MIC, growth in BHI medium). In kind it is cell-based. To be noted: text statement. How it is done:
To a test tube was charged 3.8 ml of Brain Heart Infusion (BHI) medium, and 100 μl of a sample solution containing oleanolic, ursolic or glycyrrhetic acid and 100 μl of pre-incubated culture of bacterium selected from those listed below were added thereto. The mixture was incubated at 37° C. and then allowed to stand over night. The extent of the growth of bacterium was observed after two or five days.
Streptococcus mutans OMZ 176

Take `COC(=O)[C@]12CCC(C)(C)C[C@H]1C1=CC[C@@H]3[C@@]4(C)CC[C@H](O)C(C)(C)[C@@H]4CC[C@@]3(C)[C@]1(C)CC2` [Methyl oleanolate (17-position) (a), Methyl oleanolate, reference compound]: in assay [1], the inhibition at 10 µg/mL is less than 25%, the inhibition at 20 µg/mL was less than 25%, the inhibition at 30 µg/mL was less than 25% and the inhibition at 50 µg/mL was less than 25%. In assay [1], the inhibition at 100 µg/mL was less than 25%.

For the compound `CC1(C)CC[C@]2(CO)CC[C@]3(C)C(=CC[C@@H]4[C@@]5(C)CC[C@H](O)C(C)(C)[C@@H]5CC[C@]43C)[C@@H]2C1` [Oleanolic acid (acid reductant) (b), reference compound], in assay [1], the inhibition at 10 µg/mL was less than 25%, the inhibition at 20 µg/mL was less than 25%, the inhibition at 30 µg/mL is less than 25% and the inhibition at 50 µg/mL was less than 25%. Further, the inhibition at 100 µg/mL in assay [1] was less than 25%.

Consider “Chikusetsusaponin V [Chikusetsusaponin V (e), reference compound]”, for which the “antibacterial activity to S. mutans (in words)” value (“antibacterial activity” below) in assay [2] is “could not be observed”. Besides, in assay [1], the “adherence-inhibiting activity (in words)” value is recorded as “could not be observed”.

As to `CC1(C)CC[C@]2(C)CC=C3[C@]4(C)CC[C@H]5C(C)(C)[C@@H](O)CC[C@]5(C)[C@H]4CC[C@@]3(C)[C@@H]2C1` [Taraxerol, reference compound], the “antibacterial activity” value in assay [2] is on record as “could not be observed”. Moreover, in assay [1], the inhibition at 10 µg/mL was less than 25%, the inhibition at 20 µg/mL was less than 25%, the inhibition at 30 µg/mL is less than 25% and the inhibition at 50 µg/mL was less than 25%. Further, in assay [1], the inhibition at 100 µg/mL is less than 25% and the “adherence-inhibiting activity (in words)” value is given as “could not be observed”.

As for `CC1(C)[C@@H](O[C@H]2O[C@H](C(=O)O)[C@@H](O)[C@H](O)[C@H]2O[C@@H]2O[C@H](C(=O)O)[C@@H](O)[C@H](O)[C@H]2O)CC[C@]2(C)[C@H]3C(=O)C=C4[C@@H]5C[C@@](C)(C(=O)O)CC[C@]5(C)CC[C@@]4(C)[C@]3(C)CC[C@@H]12` [Glycyrrizic acid, reference compound], in assay [2], the “antibacterial activity” value was “could not be observed”. In addition, in assay [1], the inhibition at 10 µg/mL is less than 25%, the inhibition at 20 µg/mL is less than 25%, the inhibition at 30 µg/mL was less than 25% and the inhibition at 50 µg/mL was less than 25%. In assay [1], the inhibition at 100 µg/mL was less than 25% and the “adherence-inhibiting activity (in words)” value was “could not be observed”.

`CC(=O)O[C@H]1CC[C@]2(C)[C@H]3CC=C4[C@@H]5CC(C)(C)CC[C@]5(C(=O)O)CC[C@@]4(C)[C@]3(C)CC[C@H]2C1(C)C` [reference compound]: in assay [1], the inhibition at 10 µg/mL was less than 25%, the inhibition at 20 µg/mL was less than 25%, the inhibition at 30 µg/mL was less than 25% and the inhibition at 50 µg/mL lay within 25 to 50%. Also, in assay [1], the inhibition at 100 µg/mL lay in the range of 25 to 50%.
